Legend:
Format in all cases: biochemical
human Factor Xa = target: T1, human Factor Xa (Homo sapiens, UniProt P00742); assay: Factor Xa assay (Ki, chromogenic substrate S-2222)
T1 construct: This complex converts factor X to Xa
Procedure: (§1) Factor Xa, Thrombin, and Plasma Kallikrein Assays
(§2) These procedures can be used to determine the constant of inhibition (Ki) for a sample compound of the invention.
(§3) 1. Add 50 μL sample to each well.
(§4) 2. Add 50 μL appropriately diluted coagulation factor to each well.
(§5) 3. Incubate for 5 minutes at room temperature with gentle agitation.
(§6) 4. Add 50 μL appropriately diluted substrate to each well.
(§7) 5. Agitate plate for 20-25 sec.
(§8) 6. Monitor absorbance at 405 nm every 10 sec for a total of 5 minutes at room temperature.
(§9) 7. Calculate Vmax over 10 points.
(§10) Assay—Enzyme, Substrate and Final Concentrations

[1] = target: T2, Tissue Factor/factor VIIa (recombinant human factor VIIa, soluble Tissue Factor (1-219)) (Homo sapiens, UniProt P08709); assay: Tissue Factor/Factor VIIa antagonist assay (Ki, chromogenic substrate Chromozym-tPA); settings: read-out: Ki(TFVIIa)
T2 construct: recombinant human factor VIIa (NB #25942-16); NB #25942-16
T2 sequence (P08709 213-466 limits assumed): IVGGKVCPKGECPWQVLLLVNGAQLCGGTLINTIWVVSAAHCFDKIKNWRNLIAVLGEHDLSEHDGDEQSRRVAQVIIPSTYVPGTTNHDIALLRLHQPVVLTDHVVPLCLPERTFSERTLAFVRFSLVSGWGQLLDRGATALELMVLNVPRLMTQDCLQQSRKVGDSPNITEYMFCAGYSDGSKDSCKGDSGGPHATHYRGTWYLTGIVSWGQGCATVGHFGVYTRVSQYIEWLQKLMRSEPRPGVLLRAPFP
T2 sequence (P08709 61-212 limits assumed): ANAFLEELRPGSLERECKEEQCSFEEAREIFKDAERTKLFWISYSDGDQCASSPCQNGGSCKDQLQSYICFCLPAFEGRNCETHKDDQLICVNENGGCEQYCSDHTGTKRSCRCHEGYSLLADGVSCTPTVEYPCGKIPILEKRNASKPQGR
T2 sequence (P13726 33-251 partner limits assumed): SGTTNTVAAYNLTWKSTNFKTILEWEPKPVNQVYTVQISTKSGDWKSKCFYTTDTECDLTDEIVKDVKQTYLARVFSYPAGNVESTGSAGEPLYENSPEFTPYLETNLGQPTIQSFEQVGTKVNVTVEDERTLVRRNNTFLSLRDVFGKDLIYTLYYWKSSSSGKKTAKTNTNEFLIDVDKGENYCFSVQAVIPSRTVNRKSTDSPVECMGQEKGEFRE
Procedure: Tissue Factor/Factor VIIa Antagonist Assay
This procedure can be used to determine the constant of inhibition (Ki) for a sample compound of the invention.
1. Prepare a solution of 2 μg/mL (90 nM) tissue factor and 1.5 μg/mL (30 nM) factor VIIa in assay buffer with CaCl2.
2. Incubate for 15 minutes at room temperature.
3. Add 50 μL sample to each well.
4. Add 50 μL tissue factor/factor VIIa solution to each well.
5. Incubate for 15 minutes at room temperature with gentle agitation.
6. Add 50 μL substrate to each well.
7. Agitate plate for 20-25 sec.
8. Monitor absorbance at 405 nm every 10 sec for a total of 5 minutes at room temperature.
9. Calculate Vmax over 10 points.
as §10

human Thrombin = target: T3, human Thrombin (Homo sapiens, UniProt P00734); assay: Thrombin assay (Ki, chromogenic substrate S-2366); settings: read-out: Ki(IIa)
T3 construct: rapidly converts prothrombin to thrombin
Procedure: as §1, §2, §3, §4, §5, §6, §7, §8, §9, §10

human Plasma Kallikrein = target: T4, human Plasma Kallikrein (Homo sapiens, UniProt P03952); assay: Plasma Kallikrein assay (Ki, chromogenic substrate S-2302)
T4 construct: Factor Xa, Thrombin, and Plasma Kallikrein Assays
T4 sequence (P03952 391-638 limits assumed): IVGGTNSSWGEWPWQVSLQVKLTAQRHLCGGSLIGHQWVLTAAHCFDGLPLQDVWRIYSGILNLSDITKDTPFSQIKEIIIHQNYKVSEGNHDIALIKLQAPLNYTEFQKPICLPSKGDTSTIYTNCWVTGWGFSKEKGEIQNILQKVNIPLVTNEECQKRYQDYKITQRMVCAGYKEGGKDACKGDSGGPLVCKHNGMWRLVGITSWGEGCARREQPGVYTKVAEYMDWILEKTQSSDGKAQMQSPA
T4 sequence (P03952 20-390 limits assumed): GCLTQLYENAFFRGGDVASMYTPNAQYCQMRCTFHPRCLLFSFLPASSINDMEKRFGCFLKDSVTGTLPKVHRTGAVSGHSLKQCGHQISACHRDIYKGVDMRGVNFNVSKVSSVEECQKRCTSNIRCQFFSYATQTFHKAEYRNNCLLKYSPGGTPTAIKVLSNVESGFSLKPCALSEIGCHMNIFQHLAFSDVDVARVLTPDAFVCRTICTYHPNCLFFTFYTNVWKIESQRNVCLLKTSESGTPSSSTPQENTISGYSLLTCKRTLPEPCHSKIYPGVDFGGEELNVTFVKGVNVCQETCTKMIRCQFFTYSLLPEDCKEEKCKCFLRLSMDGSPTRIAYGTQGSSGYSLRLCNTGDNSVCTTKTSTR
Procedure: as §1, §2, §3, §4, §5, §6, §7, §8, §9, §10

T1 sequence (P00742 235-488 limits assumed): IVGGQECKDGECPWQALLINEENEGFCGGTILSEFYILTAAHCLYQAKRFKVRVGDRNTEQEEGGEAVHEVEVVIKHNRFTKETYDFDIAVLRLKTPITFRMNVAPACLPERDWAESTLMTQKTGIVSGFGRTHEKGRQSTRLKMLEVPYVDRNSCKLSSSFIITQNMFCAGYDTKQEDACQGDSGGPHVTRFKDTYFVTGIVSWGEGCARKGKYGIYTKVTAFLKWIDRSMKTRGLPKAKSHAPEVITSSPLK
T1 sequence (P00742 41-179 limits assumed): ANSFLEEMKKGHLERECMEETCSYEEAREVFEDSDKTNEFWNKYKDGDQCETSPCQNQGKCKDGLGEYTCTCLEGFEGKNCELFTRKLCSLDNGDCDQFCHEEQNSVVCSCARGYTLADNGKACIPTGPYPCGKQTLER

Row | Ki (human Factor Xa) | Ki [1] | Ki (human Thrombin) | Ki (human Plasma Kallikrein) | SMILES
1 | 624 nM | – | – | – | CCCCS(=O)(=O)NC(=O)C(Nc1ccc(C(=N)N)cc1)c1ccc(OC(C)C)c(OCC)c1 (stereo not shown) [4-{2-butylsulfonylamino-1-[4-isopropoxy,5-ethoxy)-phenyl]-2-oxo-ethylamino}benzamidine]
2 | 898 nM | 3 nM | 113 nM | – | CCOc1cc(C(Nc2ccc(C(=N)N)cc2)C(=O)NS(=O)(=O)c2ccccc2)ccc1OC(C)C (stereo not shown) [4-{2-benzenesulfonylamino-1-[4-isopropoxy,5-ethoxy)-phenyl]-2-oxo-ethylamino}benzamidine]
3 | – | 5 nM | – | 2 nM | CCOc1ccc(C(Nc2ccc(C(=N)N)cc2)C(=O)NS(=O)(=O)c2ccccc2)cc1OCC (stereo not shown)
4 | 140 nM | – | 1 nM | – | CCCS(=O)(=O)NCC(Nc1ccc(C(=N)N)cc1)c1ccc(OC(CCl)c2ccccc2)c(OC)c1 (stereo not shown) [4-{2-propanesulfonylamino-1-[4-(2-chloro-1-phenyl-ethoxy)-3-methoxy-phenyl]-ethylamino}-benzamidine]
5 | – | 7 nM | – | – | CCOc1cc(OCC)cc(C(Nc2ccc(C(=N)N)cc2)C(=O)NS(=O)(=O)c2ccccc2)c1 (stereo not shown)
6 | – | – | – | 1 nM | CCCS(=O)(=O)NCC(Nc1ccc(C(=N)N)cc1)c1cc(OCC)c(OCC(C)C)cc1NS(=O)(=O)CCC (stereo not shown)
7 | – | – | – | 1 nM | CCCS(=O)(=O)NCC(Nc1ccc(C(=N)N)cc1)c1cc(OCC)c(OC(C)C)cc1NS(C)(=O)=O (stereo not shown)
8 | – | 4 nM | – | – | CCCS(=O)(=O)NCC(Nc1ccc(C(=N)N)cc1)c1cc(OCC)c(OCc2ccccc2)cc1NS(C)(=O)=O (stereo not shown) [4-[1-(4-Benzyloxy-5-ethoxy-2-methanesulfonylamino-phenyl)-2-(propane-1-sulfonylamino)-ethylamino]benzamidine]
9 | 565 nM | – | – | 11 nM | CCOc1cc(C(Nc2ccc(C(=N)N)cc2)C(=O)NS(=O)(=O)CC)ccc1OC(C)C (stereo not shown) [4-{2-ethylsulfonylamino-1-[4-isopropoxy,5-ethoxy)-phenyl]-2-oxo-ethylamino}benzamidine]
10 | – | – | 16 nM | – | COc1cc(C(CNS(=O)(=O)c2cccs2)Nc2ccc(C(=N)N)cc2)ccc1OCc1ccccc1 (stereo not shown) [4-[1-(4-Benzyloxy-3-methoxy-phenyl)-2-(thiophene-2-sulfonylamino)-ethylamino]-benzamidine]
11 | – | – | 1 nM | – | COc1cc(C(CNS(=O)(=O)c2ccccc2)Nc2ccc(C(=N)N)cc2)ccc1OC(CCl)c1ccccc1 (stereo not shown) [4-{2-benzenesulfonylamino-1-[4-(2-chloro-1-phenyl-ethoxy)-3-methoxy-phenyl]-ethylamino}-benzamidine]
